According to US9205077B2, “2-alkoxy-substituted dicyanopyridines and their use” (Bayer Intellectual Property GmbH, priority 2008, dated 2015):
pEC50: −log10 of the molar value.

Experiments:
Assay type in all cases: cell-based
adenosine A1 receptor = target: T1, adenosine A1 receptor (Homo sapiens, UniProt P30542); experiment: Indirect determination of the adenosine agonism by way of gene expression (luciferase reporter), A1 cells; conditions: CHO cells stably transfected with A1 receptor cDNA; 1 μM forskolin; 50% inhibition of luciferase response
T1 construct: expressed in transfected cells; host or cells: CHO (Chinese Hamster Ovary) permanent line, stably transfected
T1 sequence (P30542 1-326): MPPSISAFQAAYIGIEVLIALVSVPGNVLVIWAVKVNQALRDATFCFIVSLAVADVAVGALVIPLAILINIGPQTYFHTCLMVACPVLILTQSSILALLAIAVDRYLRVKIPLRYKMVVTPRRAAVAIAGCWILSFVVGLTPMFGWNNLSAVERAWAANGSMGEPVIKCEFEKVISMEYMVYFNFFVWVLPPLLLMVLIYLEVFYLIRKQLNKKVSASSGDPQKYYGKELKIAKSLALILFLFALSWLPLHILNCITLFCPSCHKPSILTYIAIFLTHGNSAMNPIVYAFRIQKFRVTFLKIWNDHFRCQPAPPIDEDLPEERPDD
From the text: (§1) B-1. Indirect Determination of the Adenosine Agonism by Way of Gene Expression
(§2) Cells of the CHO (Chinese Hamster Ovary) permanent line are transfected stably with the cDNA for the adenosine receptor subtypes A1, A2a and A2b. The adenosine A1 receptors are coupled to the adenylate cyclase by way of Gi proteins, while the adenosine A2a and A2b receptors are coupled by way of Gs proteins. In correspondence with this, the formation of cAMP in the cell is inhibited or stimulated, respectively. After that, expression of the luciferase is modulated by way of a cAMP-dependent promoter. The luciferase test is optimized, with the aim of high sensitivity and reproducibility, low variance and good suitability for implementation on a robot system, by varying several test parameters, such as cell density, duration of the growth phase and the test incubation, forskolin concentration and medium composition. The following test protocol is used for pharmacologically characterizing cells and for the robot-assisted substance screening:
(§3) The stock cultures are grown, at 37° C. and under 5% CO2, in DMEM/F12 medium containing 10% FCS (fetal calf serum) and in each case split 1:10 after 2-3 days. Test cultures are seeded in 384-well plates with 2000 cells per well and grown at 37° C. for approx. 48 hours. The medium is then replaced with a physiological sodium chloride solution (130 mM sodium chloride, 5 mM potassium chloride, 2 mM calcium chloride, 20 mM HEPES, 1 mM magnesium chloride hexahydrate, 5 mM sodium bicarbonate, pH 7.4). The substances to be tested, which are dissolved in DMSO, are pipetted into the test cultures (maximum final concentration of DMSO in the test mixture: 0.5%) in a dilution series of from 5×10^−11 M to 3×10^−6 M (final concentration). 10 minutes later, forskolin is added to the A1 cells and all the cultures are subsequently incubated at 37° C. for four hours. After that, 35 μl of a solution which is composed of 50% lysis reagent (30 mM disodium hydrogenphosphate, 10% glycerol, 3% TritonX100, 25 mM TrisHCl, 2 mM dithiotreitol (DTT), pH 7.8) and 50% luciferase substrate solution (2.5 mM ATP, 0.5 mM luciferin, 0.1 mM coenzyme A, 10 mM tricine, 1.35 mM magnesium sulphate, 15 mM DTT, pH 7.8) are added to the test cultures, which are shaken for approx. 1 minute and the luciferase activity is measured using a camera system. The EC50 values are determined, i.e., the concentrations at which 50% of the luciferase response is inhibited in the case of the A1 cell, and, respectively, 50% of the maximum stimulation with the corresponding substance is achieved in the case of the A2b and A2a cells. […] Pharmacol., 357, 1-9 (1998)).

adenosine A2b receptor = target: T2, adenosine A2b receptor (Homo sapiens, UniProt P29275); experiment: Indirect determination of the adenosine agonism by way of gene expression (luciferase reporter), A2b cells; conditions: CHO cells stably transfected with A2b receptor cDNA; 50% of maximum stimulation of luciferase
T2 construct: expressed in transfected cells; host or cells: CHO (Chinese Hamster Ovary) permanent line, stably transfected
T2 sequence (P29275 1-332): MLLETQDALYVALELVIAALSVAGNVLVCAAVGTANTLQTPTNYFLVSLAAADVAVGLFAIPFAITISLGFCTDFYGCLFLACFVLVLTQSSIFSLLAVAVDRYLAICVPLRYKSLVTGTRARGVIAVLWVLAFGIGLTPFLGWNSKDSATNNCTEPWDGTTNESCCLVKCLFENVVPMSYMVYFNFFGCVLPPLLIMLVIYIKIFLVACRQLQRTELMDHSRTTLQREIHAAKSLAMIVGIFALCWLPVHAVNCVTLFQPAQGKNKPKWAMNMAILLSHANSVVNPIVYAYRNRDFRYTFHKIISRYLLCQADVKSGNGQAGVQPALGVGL
From the text: as §1, §2, §3

adenosine A2a receptor = target: T3, adenosine A2a receptor (Homo sapiens, UniProt P29274); experiment: Indirect determination of the adenosine agonism by way of gene expression (luciferase reporter), A2a cells; conditions: CHO cells stably transfected with A2a receptor cDNA; 50% of maximum stimulation of luciferase
T3 construct: expressed in transfected cells; host or cells: CHO (Chinese Hamster Ovary) permanent line, stably transfected
From the text: as §1, §2, §3

T3 sequence (P29274 whole entry): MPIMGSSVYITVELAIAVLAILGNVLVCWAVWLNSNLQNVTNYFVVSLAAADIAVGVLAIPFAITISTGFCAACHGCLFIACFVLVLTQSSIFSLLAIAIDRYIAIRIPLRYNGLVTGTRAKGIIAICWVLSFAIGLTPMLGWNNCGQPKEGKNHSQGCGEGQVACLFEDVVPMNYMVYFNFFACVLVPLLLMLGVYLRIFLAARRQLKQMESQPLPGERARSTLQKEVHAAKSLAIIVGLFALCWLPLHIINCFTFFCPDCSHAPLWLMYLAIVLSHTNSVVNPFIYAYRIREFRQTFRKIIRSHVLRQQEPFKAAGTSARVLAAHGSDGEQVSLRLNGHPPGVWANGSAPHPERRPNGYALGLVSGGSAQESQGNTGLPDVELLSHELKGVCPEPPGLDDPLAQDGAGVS

Row | SMILES | EC50 (adenosine A1 receptor) | pEC50 (adenosine A2b receptor) | pEC50 (adenosine A2a receptor)
1 | N#Cc1c(OCCCO)nc(SCc2csc(-c3ccc(Cl)cc3)n2)c(C#N)c1-c1cncs1 [Example 6, 2-({[2-(4-Chlorophenyl)-1,3-thiazol-4-yl]methyl}sulphanyl)-6-(3-hydroxypropoxy)-4-(1,3-thiazol-5-yl)pyridine-3,5-dicarbonitrile] | 5.7 nM | < 5.52 | < 5.52
2 | CCOc1nc(SCc2coc(-c3ccc(Cl)cc3)n2)c(C#N)c(-c2ccc(OCCO)cc2)c1C#N [Example 15, 2-({[2-(4-Chlorophenyl)-1,3-oxazol-4-yl]methyl}sulphanyl)-6-ethoxy-4-[4-(2-hydroxyethoxy)-phenyl]pyridine-3,5-dicarbonitrile] | 4.8 nM | < 5.52 | < 5.52
3 | N#Cc1c(OCCO)nc(SCc2csc(-c3ccc(Cl)cc3)n2)c(C#N)c1-c1ccc(OCCO)cc1 [Example 19] | 0.5 nM | 6.75 | 6.16
4 | CCCOc1nc(SCc2csc(-c3ccc(Cl)cc3)n2)c(C#N)c(-c2ccccc2)c1C#N [Example 1, 2-({[2-(4-Chlorophenyl)-1,3-thiazol-4-yl]methyl}sulphanyl)-4-phenyl-6-propoxypyridine-3,5-dicarbonitrile] | 1.3 nM | < 5.52 | < 5.52
5 | N#Cc1c(OCCCO)nc(SCc2csc(-c3ccc(Cl)cc3)n2)c(C#N)c1-c1ccccc1 [Example 2, 2-({[2-(4-Chlorophenyl)-1,3-thiazol-4-yl]methyl}sulphanyl)-6-(3-hydroxypropoxy)-4-phenylpyridine-3,5-dicarbonitrile] | 0.7 nM | 6.27 | < 5.52
6 | CNC(=O)c1cc(CSc2nc(OCCO)c(C#N)c(-c3ccccc3)c2C#N)ccn1 [Example 18, 4-({[3,5-Dicyano-6-(2-hydroxyethoxy)-4-phenylpyridin-2-yl]thio}methyl)-N-methylpyridine-2-carboxamide] | 0.3 nM | < 5.52 | 5.76
7 | COc1nc(SCc2cccnc2)c(C#N)c(-c2ccc(OCCO)cc2)c1C#N [Example 12, 4-[4-(2-Hydroxyethoxy)phenyl]-2-methoxy-6-[(pyridin-3-ylmethyl)sulphanyl]pyridine-3,5-dicarbonitrile] | 1.2 nM | < 5.52 | 6.26
8 | COc1cccc(CSc2nc(OC)c(C#N)c(-c3ccc(OCCO)cc3)c2C#N)c1 [Example 11, 4-[4-(2-Hydroxyethoxy)phenyl]-2-methoxy-6-[(3-methoxybenzyl)sulphanyl]pyridine-3,5-dicarbonitrile] | 0.8 nM | < 5.52 | 5.95
9 | COc1nc(SCc2c[nH]cn2)c(C#N)c(-c2ccc(OCCO)cc2)c1C#N [Example 21, Formic acid 4-[4-(2-hydroxyethoxy)phenyl]-2-[(1H-imidazol-4-ylmethyl)sulphanyl]-6-methoxypyridine-3,5-dicarbonitrile (1:1)] | 73.2 nM | 7.54 | < 5.52
10 | CCOc1nc(SCc2csc(-c3ccc(Cl)cc3)n2)c(C#N)c(-c2ccc(OCCO)cc2)c1C#N [Example 16, 2-({[2-(4-Chlorophenyl)-1,3-thiazol-4-yl]methyl}sulphanyl)-6-ethoxy-4-[4-(2-hydroxyethoxy)-phenyl]pyridine-3,5-dicarbonitrile] | 0.8 nM | < 5.52 | 6.28
11 | COc1nc(SCc2csc(-c3ccc(Cl)cc3)n2)c(C#N)c(-c2ccc(OC[C@@H](O)CO)cc2)c1C#N [Example 22, 2-({[2-(4-Chlorophenyl)-1,3-thiazol-4-yl]methyl}sulphanyl)-4-(4-{[(2S)-2,3-dihydroxypropyl]-oxy}phenyl)-6-methoxypyridine-3,5-dicarbonitrile] | 2.1 nM | 6.85 | 5.90
12 | COc1nc(SCc2csc(-c3ccc(Cl)cc3)n2)c(C#N)c(-c2ccc(OCCO)cc2)c1C#N [Example 8, 2-({[2-(4-Chlorophenyl)-1,3-thiazol-4-yl]methyl}sulphanyl)-4-[4-(2-hydroxyethoxy)phenyl]-6-methoxypyridine-3,5-dicarbonitrile] | 0.3 nM | 6.98 | 5.91
13 | N#Cc1c(OCCCO)nc(SCc2csc(-c3ccc(Cl)cc3)n2)c(C#N)c1-c1ccc(OCCO)cc1 [Example 3, 2-({[2-(4-Chlorophenyl)-1,3-thiazol-4-yl]methyl}sulphanyl)-4-[4-(2-hydroxyethoxy)phenyl]-6-(3-hydroxypropoxy)pyridine-3,5-dicarbonitrile] | 0.6 nM | 6.58 | 6.16
